Residue numbers refer to the chain shown, from its start. Entries after “also recorded” stand apart in the source; their conditions may differ. Where two headings read alike, the source gives them in different places.
Assays:
rCHIKV mutants = experiment: microbe, parasite or virus in culture; format: cell-based, Chikungunya virus; settings: for Fold resistance: EC50 mutant/EC50 wt
[1] = molecular target: host enzyme SAH hydrolase; design: method as in PMID 26010585; settings: in vitro; read-out: 50% inhibitory concentration, SAH hydrolase; cited from earlier work
SFV = experiment: CPE reduction assay, SFV
SINV = experiment: CPE reduction assay, SINV; settings: VeroE6 cells, MOI 0.025
CHIKV = experiment: CPE reduction assay, CHIKV
VeroE6 cells = experiment: Cytotoxicity in uninfected cells (MTS/PMS) of the CPE reduction assay
wt SFV nsP1 = molecular target: T1, wt SFV nsP1 (Semliki forest virus, UniProt P08411); experiment: nsP1 enzymatic activity assay (m7GMP-nsP1 intermediate formation), wt
T1 sequence (P08411 1-537): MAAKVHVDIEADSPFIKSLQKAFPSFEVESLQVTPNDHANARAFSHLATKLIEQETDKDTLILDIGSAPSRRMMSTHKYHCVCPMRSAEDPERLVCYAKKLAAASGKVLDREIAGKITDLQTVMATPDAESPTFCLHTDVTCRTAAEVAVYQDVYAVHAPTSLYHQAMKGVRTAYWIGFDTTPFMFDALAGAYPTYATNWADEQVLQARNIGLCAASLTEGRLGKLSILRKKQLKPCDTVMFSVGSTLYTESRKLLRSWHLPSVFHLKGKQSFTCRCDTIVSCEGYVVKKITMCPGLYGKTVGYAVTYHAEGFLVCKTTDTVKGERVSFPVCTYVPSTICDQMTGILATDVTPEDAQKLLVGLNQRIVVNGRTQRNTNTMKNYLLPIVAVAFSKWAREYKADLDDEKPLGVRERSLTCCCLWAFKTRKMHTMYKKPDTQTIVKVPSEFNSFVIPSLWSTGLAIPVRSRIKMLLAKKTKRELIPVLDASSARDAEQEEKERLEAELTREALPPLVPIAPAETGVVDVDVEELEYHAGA

SFV nsP1 K231R+K300E = molecular target: T2, SFV nsP1 K231R+K300E (Semliki forest virus, UniProt P08411, K231R/K300E); format: biochemical; settings: 0 to 1 mM, 10 μM SAM, normalized to untreated control
T2 sequence (P08411 1-537 K231R/K300E): T1 sequence (P08411 1-537) with K231R, K300E

[2] = Chikungunya virus, Vero C1008, read-out: Mean EC50 ± SD
[3] = Chikungunya virus, read-out: Mean EC50 ± SD
[4] = rCHIKV nsP1-G230R + nsP1-K299E + nsP3-*524R
[5] = rCHIKV nsP1-G230R + nsP1-K299E + nsP3-*524R, read-out: Mean EC50 ± SD
[6] = rCHIKV nsP1-G230R + nsP1-K299E, read-out: Mean EC50 ± SD
[7] = rCHIKV nsP1-R171Q, read-out: Mean EC50 ± SD

Compound | EC50 (rCHIKV mutants; [2]) [nM] | EC50 (rCHIKV mutants; [3]) [nM] | Fold resistance (rCHIKV mutants; [4]) | EC50 (rCHIKV mutants; [5]) [nM] | Fold resistance (rCHIKV mutants; rCHIKV nsP1-G230R + nsP1-K299E) | EC50 (rCHIKV mutants; [6]) [nM] | Fold resistance (rCHIKV mutants; rCHIKV nsP1-R171Q) | EC50 (rCHIKV mutants; [7]) [nM] | other results
6′-β-fluoro-homoaristeromycin [FHA] |  |  |  |  |  |  |  |  | Resistance of rCHIKV G230R+K299E to the compound (rCHIKV mutants; rCHIKV G230R+K299E): resistant; IC50 [1]: 370 nM; SI (SFV) (SFV; CC50/EC50): >64; EC50 (SFV; read-out: EC50 (SFV), VeroE6 cells, MOI 0.025, MTS at 40 hpi, mean ± SD): 3900 ± 3500 nM; Protection against SINV infection (SINV): did not confer protection; SI (CHIKV) (CHIKV; CC50/EC50): >1,000; EC50 (CHIKV; read-out: EC50 (CHIKV), VeroE6 cells, MOI 0.005, MTS at 96 hpi, mean ± SD): 120 ± 40 nM; CC50 (VeroE6 cells; read-out: CC50 (CHIKV assay), CHIKV assay format): > 250000 nM; CC50 (VeroE6 cells; read-out: CC50 (SFV assay), SFV assay format): > 250000 nM; CC50 (VeroE6 cells; read-out: CC50 (SINV assay), SINV assay format): > 250000 nM
O=c1cnn([C@@H]2O[C@H](CO)[C@@H](O)[C@H]2O)c(=O)[nH]1 [6-Azauridine, 6-azauridine, reference compound] | 300 ± 10 | 8900 ± 3400 | 4 | 900 ± 100 | 4 | 1100 ± 100 | 3 | 800 ± 100 | 
CCc1nc2c(nnn2-c2cccc(OC(C)C)c2)c(=O)[nH]1 [MADTP-372, reference compound] |  |  |  |  |  |  |  |  | Effect on formation of m7GMP-nsP1 intermediate (control compound) (wt SFV nsP1; 50 μM, 5 or 10 μM SAM): clearly inhibited the reaction
COc1c(C)c2c(c(O)c1C/C=C(\C)CCC(=O)O)C(=O)OC2 [Mycophenolic acid, mycophenolic acid, reference compound] | 400 ± 10 | 6300 ± 11400 | 1 | 500 ± 30 | 3 | 1100 ± 500 | 11 | 4200 ± 2800 | 
Nc1ncnc2c1ncn2[C@@H]1O[C@H](CSCC[C@H](N)C(=O)O)[C@@H](O)[C@H]1O [SAH, S-adenosylhomocysteine, reference compound] |  |  |  |  |  |  |  |  | Inhibition of mutant compared to wt SFV nsP1 (SFV nsP1 K231R+K300E): inhibited by SAH to a similar extent; also recorded: inhibited by SAH to the same extent; Inhibition of m7GMP-nsP1 formation, dose response (wt SFV nsP1; 0 to 1 mM, 10 μM SAM): inhibited in a dose-dependent manner; Inhibition of m7GMP-nsP1 formation (wt SFV nsP1; 1 mM, 100-fold molar excess over SAM (10 μM SAM)): fully inhibited

Reference: article PMC7179274, “6′-β-Fluoro-Homoaristeromycin and 6′-Fluoro-Homoneplanocin A Are Potent Inhibitors of Chikungunya Virus Replication through Their Direct Effect on Viral Nonstructural Protein 1” (Antimicrobial Agents and Chemotherapy, 2020)
